Source: article PMC11354745, “Discovery of Novel Amino Acids (Analogues)-Substituted Thiophene[3,2-d]pyrimidine Derivatives as Potent HIV-1 Non-Nucleoside Reverse Transcriptase Inhibitors: Design, Synthesis, and Biological Evaluation” (International Journal of Molecular Sciences, 2024)
Like-named read-outs stand apart in the source and are kept apart here.

Assays:
[1] = tested on: HIV-1 double-mutant strain K103N+Y181C (RES056); experiment: microbe, parasite or virus in culture; type: cell-based; conditions: for EC50: Human immunodeficiency virus 1, MT4, read-out: EC50 RES056; for SI RES056: selectivity index, ratio CC50/EC50, RES056
Experimental: (§1) All the target compounds were first evaluated for their antiviral activity against HIV-1 wild-type (WT) strain (IIIB) and the double-mutant strain K103N+Y181C (RES056) in the MT-4 cell line, using the MTT method.
(§2) The antiviral potential and cytotoxic effects of the target compounds were assessed using the MTT assay in MT-4 cells, following established protocols. The HIV-1 (IIIB) strain, single mutant strains (L100I, K103N, Y181C, Y188L and E138K), double mutant strains (F227L + V106A and K103N + Y181C) and MT-4 cells were provided by the Rega Institute of Medicine at the University of Leuven, Belgium. These viral strains were propagated in MT-4 cells. […] The specific experimental procedures are detailed below.
(§3) Initially, concentrated solutions of the test compounds were prepared at 10-fold the final desired concentration and added to triplicate wells in 25 µL aliquots to assess their impacts on both mock and HIV-infected MT-4 cells. Using a Biomek 3000 robot, these were diluted in a 96-well flat-bottomed microplate by mixing with medium, creating a series of 5-fold steps down in concentration. Each test included control groups of untreated infected and mock-infected cells to establish baselines for comparison. […] These strains served to mimic both typical and resistant infections. Additionally, mock-infected wells received an equal volume of culture medium to assess the compounds’ impacts on uninfected cells, thereby determining cytotoxicity. MT-4 cells in the exponential growth phase were pelleted by centrifugation at 1000 rpm for 5 min, after which the supernatant was removed. The cells were resuspended to a density of 6 × 10^5 cells/mL, and 50 µL of this suspension was added to each well. Post-infection, on the fifth day, cell viability in both mock and infected conditions was measured via the MTT assay using a spectrophotometer.

[2] = tested on: HIV-1 wild-type (WT) strain (IIIB); experiment: Anti-HIV activity in MT-4 cells (MTT method), HIV-1 IIIB; type: cell-based; conditions: for EC50: Human immunodeficiency virus 1, IIIB, MT4, read-out: EC50 IIIB; for SI IIIB: selectivity index, ratio CC50/EC50, IIIB
Experimental: as §1, §2, §3

[3] = Cytotoxicity in mock-infected MT-4 cells (MTT method); type: cell-based; conditions: human
Experimental: (§4) The antiviral potential and cytotoxic effects of the target compounds were assessed using the MTT assay in MT-4 cells, following established protocols. The HIV-1 (IIIB) strain, single mutant strains (L100I, K103N, Y181C, Y188L and E138K), double mutant strains (F227L + V106A and K103N + Y181C) and MT-4 cells were provided by the Rega Institute of Medicine at the University of Leuven, Belgium. These viral strains were propagated in MT-4 cells. The MT-4 cells were cultured in RPMI-1640 medium supplemented with 20 mM HEPES buffer (Life Technologies, Grand Island, NY, USA), 10% (v/v) heat-inactivated fetal calf serum (FCS), 2 mM L-glutamine, 0.1% sodium bicarbonate, and 20 μg/mL gentamicin. Cultures were maintained at 37 °C in a 5% CO2 atmosphere. The specific experimental procedures are detailed below.
(§5) Initially, concentrated solutions of the test compounds were prepared at 10-fold the final desired concentration and added to triplicate wells in 25 µL aliquots to assess their impacts on both mock and HIV-infected MT-4 cells. Using a Biomek 3000 robot, these were diluted in a 96-well flat-bottomed microplate by mixing with medium, creating a series of 5-fold steps down in concentration. Each test included control groups of untreated infected and mock-infected cells to establish baselines for comparison. We introduced HIV-1 strains, both wild-type (IIIB) and drug-resistant variants harboring mutations L100I, K103N, Y181C, Y188L, E138K and F227L + V106A and the double mutant K103N + Y181C (RES056), at concentrations of 100–300 CCID50, into their respective wells. These strains served to mimic both typical and resistant infections. Additionally, mock-infected wells received an equal volume of culture medium to assess the compounds’ impacts on uninfected cells, thereby determining cytotoxicity. MT-4 cells in the exponential growth phase were pelleted by centrifugation at 1000 rpm for 5 min, after which the supernatant was removed. The cells were resuspended to a density of 6 × 10^5 cells/mL, and 50 µL of this suspension was added to each well. Post-infection, on the fifth day, cell viability in both mock and infected conditions was measured via the MTT assay using a spectrophotometer. The CC50 was identified as the concentration of the compound that caused a 50% reduction in the viability of the mock-infected cells, indicating cytotoxicity. Conversely, the EC50 represented the concentration that provided 50% protection against viral cytopathic effects in infected cells, signifying antiviral potency.

[4] = tested on: HIV-1 K103N mutant strain; experiment: Anti-HIV activity in MT-4 cells (MTT method), K103N; type: cell-based; conditions: Human immunodeficiency virus 1, MT4, read-out: EC50 K103N
From the text: (§6) All the target compounds were first evaluated for their antiviral activity against HIV-1 wild-type (WT) strain (IIIB) and the double-mutant strain K103N+Y181C (RES056) in the MT-4 cell line, using the MTT method. The potent inhibitors were selected to assess their efficacy against other strains resistant to NNRTIs, including L100I, K103N, Y181C, Y188L, E138K and the double-mutant strain F227L+V106A. The approved drugs NVP, EFV and ETR were selected as reference drugs. The biological evaluation results of the test compounds, presented as EC50 (anti-HIV potency), CC50 (cytotoxicity) and SI (selectivity index, CC50/EC50 ratio), are summarized in Table 1 and Table 2.
as §4, §5

[5] = tested on: HIV-1 double-mutant strain F227L+V106A; experiment: Anti-HIV activity in MT-4 cells (MTT method), F227L+V106A; type: cell-based; conditions: Human immunodeficiency virus 1, MT4, read-out: EC50 F227L/V106A
From the text: as §6, §4, §5

[6] = tested on: HIV-1 E138K mutant strain; experiment: Anti-HIV activity in MT-4 cells (MTT method), E138K; type: cell-based; conditions: Human immunodeficiency virus 1, MT4, read-out: EC50 E138K
From the text: as §6, §4, §5

[7] = tested on: HIV-1 Y188L mutant strain; experiment: Anti-HIV activity in MT-4 cells (MTT method), Y188L; type: cell-based; conditions: Human immunodeficiency virus 1, MT4, read-out: EC50 Y188L
From the text: as §6, §4, §5

[8] = tested on: HIV-1 Y181C mutant strain; experiment: Anti-HIV activity in MT-4 cells (MTT method), Y181C; type: cell-based; conditions: Human immunodeficiency virus 1, MT4, read-out: EC50 Y181C
From the text: as §6, §4, §5

[9] = tested on: HIV-1 L100I mutant strain; experiment: Anti-HIV activity in MT-4 cells (MTT method), L100I; type: cell-based; conditions: Human immunodeficiency virus 1, MT4, read-out: EC50 L100I
From the text: as §6, §4, §5

WT HIV-1 RT = target: T1, WT HIV-1 RT (Human immunodeficiency virus type 1 group M subtype B, UniProt P03366); experiment: HIV-1 RT inhibition assay (Roche kit, ELISA); type: biochemical
T1 construct: viral nucleotides (dNTPs) and the HIV-1 RT enzyme in an incubation buffer; purchased Roche
From the text: An assay kit for HIV-1 reverse transcriptase (RT) from Roche was utilized to assess RT inhibition. The kit provided all necessary components for the RT reaction, and the enzyme-linked immunosorbent assay (ELISA) methodology for the inhibition assay was executed according to the kit’s instructions. […] Unbound dNTPs were washed away, and an anti-[…] (DIG)-POD working solution was introduced. […] Excess anti-DIG-POD was removed, and a peroxidase substrate (ABTS) solution was applied to the MTPs. […] The percentage of the inhibitory activity of the RT inhibitors was calculated by formula, as given below:
% Inhibition = [O.D. value with RT but without inhibitors − O.D. value with RT and inhibitors]/[O.D. value with RT […] − O.D. value without RT and inhibitors].

[10] = reduces viability of mock-infected MT-4 cell cultures by 50%, MTT method, read-out: CC50

Row | SMILES | melting point | EC50 [1] | EC50 [2] | SI IIIB [2] | CC50 at 5 days ([3]; CC50) | EC50 [4] | EC50 [5] | EC50 [6] | EC50 [7] | EC50 [8] | SI RES056 [1] | EC50 [9] | IC50 (WT HIV-1 RT) | CC50 at 5 days [3, 10]
1 | Cc1cc(C#N)cc(C)c1Oc1nc(Nc2ccc(NC(=O)C(Cc3c[nH]c4ccccc34)NC(=O)OC(C)(C)C)cc2)nc2ccsc12 (stereo not drawn) [5a] | 205 to 208 °C | > 186000 nM | 940 ± 278 nM | >197 | > 186000 nM | – | – | – | – | – | – | – | – | –
2 | Cc1cc(C#N)cc(C)c1Oc1nc(Nc2ccc(C#N)cc2)nc(N)c1Br [ETR, etravirine, reference compound] | – | 40 ± 11 nM | 3 ± 1 nM | – | > 4610 nM | 3 ± 1 nM | 9 ± 4 nM | 9 ± 4 nM | 21 ± 8 nM | 15 ± 5 nM | – | – | – | –
3 | Cc1cc(C#N)cc(C)c1Oc1nc(Nc2ccc(NC(=O)C(N)Cc3c[nH]c4ccccc34)cc2)nc2ccsc12 (stereo not drawn) [5b] | 224 to 227 °C | > 22400 nM | 89 ± 43 nM | 250 | 22400 ± 560 nM | – | – | – | – | – | <1 | – | – | –
4 | Cc1cc(C#N)cc(C)c1Oc1nc(Nc2ccc(NC(=O)[C@H](Cc3ccccc3)NC(=O)OC(C)(C)C)cc2)nc2ccsc12 [5d] | 220 to 222 °C | > 197000 nM | 771 ± 236 nM | >256 | > 197000 nM | – | – | – | – | – | – | – | – | –
5 | Cc1cc(C#N)cc(C)c1Oc1nc(Nc2ccc(NC(=O)C3CCCN3C(=O)OC(C)(C)C)cc2)nc2ccsc12 (stereo not drawn) [5g] | 236 to 238 °C | > 191000 nM | 924 ± 242 nM | 206 | 191000 nM | – | – | – | – | – | <1 | – | – | –
6 | CNCC(=O)Nc1ccc(Nc2nc(Oc3c(C)cc(C#N)cc3C)c3sccc3n2)cc1 [5j] | 171 to 173 °C | > 17300 nM | 242 ± 65 nM | 72 | 17300 ± 11500 nM | – | – | – | – | – | <1 | – | – | –
7 | Cc1cc(C#N)cc(C)c1Oc1nc(Nc2ccc(NC(=O)C3CC(O)CN3)cc2)nc2ccsc12 (stereo not drawn) [5l] | – | > 26800 nM | 59 ± 10 nM | 451 | 26800 ± 1070 nM | 72 ± 18 nM | 2190 ± 45 nM | 314 ± 95 nM | 2740 ± 103 nM | 2600 ± 225 nM | <1 | 1480 ± 545 nM | 1710 ± 298 nM | –
8 | Cc1cc(C#N)cc(C)c1Oc1nc(Nc2ccc(NC(=O)CN(C)C(=O)OC(C)(C)C)cc2)nc2ccsc12 [5o] | – | – | 863 ± 253 nM | 7 | 5840 ± 1180 nM | – | – | – | – | – | – | – | – | –
9 | Cc1cc(C#N)cc(C)c1Oc1nc(Nc2ccc(NC(=O)[C@@H](CC(C)C)NC(=O)OC(C)(C)C)cc2)nc2ccsc12 [5m] | – | > 208000 nM | 9860 ± 1180 nM | >21 | > 208000 nM | – | – | – | – | – | – | – | – | –
10 | Cc1cc(C#N)cc(C)c1Oc1nc(Nc2ccc(NC(=O)C3CC(O)CN3C(=O)OC(C)(C)C)cc2)nc2ccsc12 (stereo not drawn) [5p] | – | – | 2580 ± 520 nM | 9 | 22500 ± 391 nM | – | – | – | – | – | – | – | – | –
11 | Cc1ccnc2c1NC(=O)c1cccnc1N2C1CC1 [NVP, nevirapine, reference compound] | – | > 15000 nM | 236 ± 114 nM | – | – | 4090 ± 3710 nM | 7500 ± 2590 nM | 181 ± 67 nM | 9870 ± 2470 nM | 8040 ± 1680 nM | – | 1740 ± 879 nM | – | > 15000 nM
12 | O=C1Nc2ccc(Cl)cc2[C@@](C#CC2CC2)(C(F)(F)F)O1 [EFV, efavirenz, reference compound] | – | 698 ± 449 nM | 6 ± 2 nM | – | – | 132 ± 50 nM | 329 ± 228 nM | 10 ± 5 nM | 280 ± 91 nM | 8 ± 1 nM | – | 54 ± 36 nM | – | > 6350 nM
13 | Cc1cc(C#N)cc(C)c1Oc1nc(Nc2ccc(NC(=O)[C@@H](NC(=O)OC(C)(C)C)C(C)C)cc2)nc2ccsc12 [5f] | 158 to 160 °C | > 213000 nM | 848 ± 247 nM | >251 | > 213000 nM | – | – | – | – | – | – | – | – | –
14 | Cc1cc(C#N)cc(C)c1Oc1nc(Nc2ccc(NC(=O)[C@H](Cc3cn(C(=O)OC(C)(C)C)cn3)NC(=O)OC(C)(C)C)cc2)nc2ccsc12 [5c] | 236 to 238 °C | > 19600 nM | 672 ± 648 nM | 29 | 19600 ± 720 nM | – | – | – | – | – | <1 | – | – | –
